Measurements: patent US11179384B2, “Treatment of nonalcoholic fatty liver disease” (TAKEDA GMBH, priority 2016, dated 2021)

What was measured:
[1] = test system: TNFα gene expression; assay: Hepatic gene expression in prophylactic NASH mouse model, TNFα (Taqman PCR); format: in vivo; conditions: LDLR-KO mice on mCDAA diet; 1, 3 and 10 mg/kg p.o. QD for 7 weeks; liver mRNA
Protocol: Homozygous low-density lipoprotein receptor knockout (LDLR-KO) mice were fed with chow or modified choline deficient, L-amino acid-defined (mCDAA) diet (A08111307, Research Diets, USA). After 1 week under chow or mCDAA diet, the mice were orally dosed with Compound A (1, 3 and 10 mg/5 ml/kg, QD, n=10; suspension in 0.5 w/v % methylcellulose suspension) for 7 weeks.
In addition prophylactic effects of Compound A on hepatic gene expression were evaluated. After total RNA was extracted from liver, cDNA was amplified using High-Capacity cDNA Reverse Transcription Kit (ABI 4368813), and target gene mRNA was measured using Taqman PCR. The target gene expression level was normalized by GAPDH.

[2] = test system: Female db/db mice; assay: HbA1c, 4 weeks treatment in db/db mice; format: in vivo; conditions: 28 days, vehicle 9.06%
Protocol: Female db/db mice were purchased from Taconic (Lille Skensved, Denmark) at 5-6 weeks of age and were maintained under standard conditions (5 animals/cage; 12 h light-dark cycle; room temperature of 22±2° C.; relative humidity of 60±15%). All mice had free access to water and standard chow (Provimi Kliba, Kaiseraugst, Switzerland). Four days upon arrival animals were randomized based on body weight and levels of glycated hemoglobin 1c (HbA1c). At 7 weeks of age, animals were treated daily by oral gavage with vehicle (4% methylcellulose) or with Compound A (composed in aqueous 4% methylcellulose) using doses of 1, 3 and 10 mg/kg s.i.d. (doses related to free base). The required dose was applied in a volume of 10 ml/kg body weight. Each dose group consisted of 10 animals. At the end of the treatment period plasma samples were isolated for determination of HbA1c levels. All experimental procedures were conducted according to the German Animal Protection Law.
HbA1c was analyzed from tail-tip-blood (HbA1c determination before treatment) as well as from blood collected from the retro-orbital venous plexus (HbA1c determination after 4 weeks treatment) using the Hemoglobin A1c Test (Siemens, Bad Nauheim, Germany).
Statistical analysis: Values are presented as means±SEM. Statistical differences were determined using one-way-ANOVA followed by a post-hoc analysis with Dunnet's correction (GraphPad Prism).

**Q.** `CCOc1cc2c(cc1OC)C(c1ccc(=O)n(C)c1)=N[C@@H]1CC[C@@H](O)C[C@H]21` [Compound A, 5-((2R,4aR,10bR)-9-Ethoxy-2-hydroxy-8-methoxy-1,2,3,4,4a,10b-hexahydro-phenanthridin-6-yl)-1-methyl-1H-pyridin-2-one] was tested. Which “hepatic inflammatory TNFα gene expression (normalized by GAPDH)” value [1] did it give?
**A.** The value was “dose-dependent reduction”.

**Q.** What about the “mean HbA1c” value ([2]; 1 mg/kg p.o. daily, 1 mg/kg) of the same compound?
**A.** The value was 7.27%.

**Q.** What about the “mean HbA1c” value ([2]; 3 mg/kg p.o. daily, 3 mg/kg) of the same compound?
**A.** The value was 7.06%.

**Q.** What about the “mean HbA1c” value ([2]; 10 mg/kg p.o. daily, 10 mg/kg) of the same compound?
**A.** Its value is 6.16%.
